This note sets out measurements from patent publication US20260125346A1, “Isoquinolinone Derivatives and 4H-Quinolizinone Derivatives and Pharmaceutical Compositions Thereof for the Treatment of Disease” (BeOne Medicines I GmbH, priority 2023, published 2026).

The test system of experiment [1] is WT cell line SK-BR-3. As to the kind of experiment: Cell Proliferation Assay (CellTiter-Glo), SK-BR-3. The experiment is classed as cell-based. The following applies: Homo sapiens, 72 h; SK-BR-3, 3 days treatment. The method, boiled down: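 SK-BR-3 cells treated for 3 days with compound in a 9-point series, final concentrations 10 M to 1 nM in 0.1% DMSO. Viability read by CellTiter-Glo luminescence. Relative IC50 from percent inhibition versus medium-only and DMSO controls, four-parameter logistic fit.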

The target of experiment [2] is PI3Kα (p110/p85) kinase (wild type, "WT") (Homo sapiens, UniProt P42336). As to the kind of experiment: PI3Kα (p110/p85) kinase ADP-Glo Assay. The experiment is classed as biochemical. The conditions noted are these: 25 uM ATP. The essentials: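 IC50 values come from a four-parameter logistic fit of ADP-Glo chemiluminescence, reflecting ADP formed. Enzyme, lipid substrate and […] compound were preincubated 30 min at room temperature, then 25 µM ATP was added for a 120 min reaction in 50 mM HEPES pH7.5, 3 mM MgCl2.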
PI3Kα (p110/p85) kinase (wild type, "WT"), sequence (P42336 whole entry): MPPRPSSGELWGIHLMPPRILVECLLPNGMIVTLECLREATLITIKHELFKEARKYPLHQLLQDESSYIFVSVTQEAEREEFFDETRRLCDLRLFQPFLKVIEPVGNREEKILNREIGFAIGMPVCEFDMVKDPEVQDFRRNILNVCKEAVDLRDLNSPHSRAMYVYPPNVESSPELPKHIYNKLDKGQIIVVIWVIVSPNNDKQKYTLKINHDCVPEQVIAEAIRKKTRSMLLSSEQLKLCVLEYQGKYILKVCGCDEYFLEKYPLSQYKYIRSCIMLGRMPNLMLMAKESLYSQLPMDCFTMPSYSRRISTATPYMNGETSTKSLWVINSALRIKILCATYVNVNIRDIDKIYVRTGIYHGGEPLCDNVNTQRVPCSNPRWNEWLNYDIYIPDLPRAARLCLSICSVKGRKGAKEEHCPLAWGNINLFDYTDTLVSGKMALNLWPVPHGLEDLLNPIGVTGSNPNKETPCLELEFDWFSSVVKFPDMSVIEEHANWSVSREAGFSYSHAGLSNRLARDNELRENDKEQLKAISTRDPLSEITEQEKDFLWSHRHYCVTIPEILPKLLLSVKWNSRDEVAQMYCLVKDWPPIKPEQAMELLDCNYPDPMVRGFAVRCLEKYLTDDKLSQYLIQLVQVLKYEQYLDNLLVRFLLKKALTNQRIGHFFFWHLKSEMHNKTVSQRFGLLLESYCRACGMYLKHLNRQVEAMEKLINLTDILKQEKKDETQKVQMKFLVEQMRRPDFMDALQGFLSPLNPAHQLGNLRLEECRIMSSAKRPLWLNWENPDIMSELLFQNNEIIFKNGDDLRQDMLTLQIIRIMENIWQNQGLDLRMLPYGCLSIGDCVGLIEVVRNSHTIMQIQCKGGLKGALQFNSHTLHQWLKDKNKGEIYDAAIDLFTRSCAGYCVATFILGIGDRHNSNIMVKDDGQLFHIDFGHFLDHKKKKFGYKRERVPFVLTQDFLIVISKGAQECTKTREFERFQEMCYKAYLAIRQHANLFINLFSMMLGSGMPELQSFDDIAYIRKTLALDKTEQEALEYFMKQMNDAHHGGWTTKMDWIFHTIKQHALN
PI3Kα (p110/p85) kinase (wild type, "WT"), sequence (P27986 whole entry partner): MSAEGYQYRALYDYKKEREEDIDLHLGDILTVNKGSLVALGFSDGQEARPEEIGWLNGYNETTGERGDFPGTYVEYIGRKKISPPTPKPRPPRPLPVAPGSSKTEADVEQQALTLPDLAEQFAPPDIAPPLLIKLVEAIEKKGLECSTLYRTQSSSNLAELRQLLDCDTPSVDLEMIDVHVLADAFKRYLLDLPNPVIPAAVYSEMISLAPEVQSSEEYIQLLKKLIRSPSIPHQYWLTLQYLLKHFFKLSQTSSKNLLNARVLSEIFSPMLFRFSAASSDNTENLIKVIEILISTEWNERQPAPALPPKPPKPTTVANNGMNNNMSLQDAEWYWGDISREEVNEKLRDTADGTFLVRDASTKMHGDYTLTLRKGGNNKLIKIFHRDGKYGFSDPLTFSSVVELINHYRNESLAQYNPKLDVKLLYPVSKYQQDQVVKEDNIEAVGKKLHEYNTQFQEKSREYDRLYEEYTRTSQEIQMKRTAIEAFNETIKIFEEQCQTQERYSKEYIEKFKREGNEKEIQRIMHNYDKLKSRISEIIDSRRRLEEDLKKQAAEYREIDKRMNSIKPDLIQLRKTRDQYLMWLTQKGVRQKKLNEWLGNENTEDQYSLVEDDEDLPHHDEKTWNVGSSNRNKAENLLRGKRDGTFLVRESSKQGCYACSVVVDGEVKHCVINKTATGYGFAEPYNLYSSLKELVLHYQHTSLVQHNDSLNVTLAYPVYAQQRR
Background: ADP-Glo first removes unused ATP, then detects ADP through luciferase.

Experiment [3] deals with WT cell line SK-BR-3. As to the kind of experiment: Phospho-AKT (Ser473) Inhibition Assay (HTRF), SK-BR-3. The experiment is classed as cell-based. The conditions noted are these: Homo sapiens; SK-BR-3, 1 hour treatment; read-out: p-AKT Inhibition assay (S473) IC50 SK-BR-3. The essentials:
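SK-BR-3 (PI3Kα WT) cells seeded overnight in MEM with insulin, then treated 1 h with 11-point 1:3 dilutions (10 μM to 0.1 nM, 0.1% DMSO). Lysates read for phospho-AKT Ser473 by HTRF after 4 h antibody incubation at room temperature. IC50 from 4-parameter fit, % inhibition normalized to DMSO (max) and 10 μM GDC0077 (min).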
(Time-resolved FRET reads energy transfer from a long-lived donor to a nearby acceptor.)

On to `Cc1cc(C(C)Nc2ccccc2C(=O)O)c2cc(-c3ccc(F)cc3)n(C3CCOCC3)c(=O)c2c1` (stereo not drawn) [Example 96, 2-((1-(3-(4-fluorophenyl)-7-methyl-1-oxo-2-(tetrahydro-2H-pyran-4-yl)-1,2-dihydroisoquinolin-5-yl)ethyl)amino)benzoic acid], for which the figures for the IC50 (with WT cell line SK-BR-3 [1]; in experiment [2]; in the experiment on WT cell line SK-BR-3 [3]) were greater than 10 µM, 72 µM and 9.52 µM, respectively.
Consider `Cc1cc(C(C)Nc2ccncc2C(=O)O)c2cc(-c3ccc(F)cc3)n(C)c(=O)c2c1` (stereo not drawn) [Example 97, 4-((1-(3-(4-fluorophenyl)-2,7-dimethyl-1-oxo-1,2-dihydroisoquinolin-5-yl)ethyl)amino)nicotinic acid], for which the IC50 is greater than 10 µM in the experiment with WT cell line SK-BR-3 [1], greater than 100 µM in experiment [2] and greater than 10 µM in the experiment with WT cell line SK-BR-3 [3].

Usually IC50 stands for the point on the concentration scale where inhibition reaches its midpoint.
